This is an account of results in patent publication US6849626B2, “Aza-amino acid derivatives (factor Xa inhibitors 15)” (Merck Patent GmbH, priority 2000, dated 2005).

As for `CCCN(Nc1cccc(C(=N)N)c1)C(=O)NNc1ccc(-c2ccccc2S(C)(=O)=O)cc1` [Compound 15, 1-(3-amidinophenyl)-4-(2′-methylsulfonylbiphenyl-4-ylamino)-2-propylsemicarbazide], the melting point – broadly, the temperature, or range, at which the solid turns liquid – is over 300 °C.

`CCCN(Nc1cccc(C(=N)N)c1)C(=O)Nc1ccc(-c2ccccc2S(N)(=O)=O)cc1` [Compound 1, 4′-[3-(3-amidinophenyl)-2-propylcarbazoylamino]biphenyl-2-sulfonamide] came in with a melting point of 215 to 216 °C.
